Biological target: T1, 14-3-3γ/ERRγ complex (Homo sapiens, UniProt P61981+P62508)
T1 construct: made in house; host or cells: E. coli NiCo21 (DE3)
Assay: Time-dependent intact MS in competitive mixture of nine client phosphopeptides
Format: biochemical
Source text: 14-3-3 proteins interact with many phosphorylated proteins, with differing affinities and cellular concentrations.[44],[49],[50] On the cellular level, there is a large reservoir of 14-3-3, typically in vast excess to its binding partners. Notwithstanding, we were interested in developing a testable model for the effect of the molecular locking on a PPI network. To investigate the intricacies of selective stabilization of the 14-3-3/ERRγ interaction in a complex matrix, we performed time-dependent intact MS experiments in a competitive environment of excess of 14-3-3 client phosphopeptides. A mixture of 14-3-3 (1 eq.), molecular lock 5 (10 eq.), ΕRRγ (2 eq.), and eight additional client phosphopeptides (8 × 2 eq.) was incubated, and incremental samples were taken, quenched with sodium cyanoborohydride, and measured (Figure 5). […] The peptide panel contained four higher-affinity and three lower-affinity 14-3-3 binding clients, relative to ERRγ, (Figure 5b) and contained +1 Cys-containing peptides RND3 and PKR.
Figure S23a. QTOF-MS analysis of 14-3-3/peptide mix/5. […] Calculated mass 14-3-3γ apo:
31542.8 Da. Calculated mass covalently crosslinked 14-3-3γ/ERRγ/5 complex: 33019.5 Da. […]
Different Scanning Fluorimetry (DSF) assays were performed using 40 µL samples containing 5 µM 14-3-3γ, 50 µM ERRγ pS179 9-mer peptide, 200 µM compound (or 1% DMSO) and 5x ProteoOrange (Lumiprobe, 5000x stock in DMSO) in 10 mM Hepes, 150 mM NaCl, 50 µM TCEP (pH 8.0). […] Fluorescence intensity was determined using excitation 470/40 nm and emission 570/20 nm filters. Based on these melting curves, the negative derivative melting curve is obtained from which the melting temperature Tm was determined. ΔTm values represent the differences in melting temperature relative to the DMSO control. All described melting temperatures are based on three independent experiments from which the average and standard deviations were determined using excel. […]

T1 sequence (P61981 whole entry, other chains not shown): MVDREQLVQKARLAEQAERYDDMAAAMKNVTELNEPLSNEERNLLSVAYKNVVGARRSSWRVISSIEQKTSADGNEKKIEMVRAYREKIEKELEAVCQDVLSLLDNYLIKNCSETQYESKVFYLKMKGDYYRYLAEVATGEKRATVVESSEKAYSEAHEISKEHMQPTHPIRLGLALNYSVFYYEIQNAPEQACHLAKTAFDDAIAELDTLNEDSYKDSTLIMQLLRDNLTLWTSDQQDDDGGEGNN

Structure (SMILES): CN(C)CCSSCCN(C)C(=O)c1ccc(C=O)c(F)c1 [compound 5]
- maximum crosslinking efficiency (14-3-3γ/ERRγ/5 complex formation) (14-3-3γ 5 μM, ERRγ 10 μM, 5 50 μM, eight additional phosphopeptides 10 μM each): 35%
- increase in total number of 14-3-3/ERRγ complexes in solution (intact MS 35% vs modeled 2.4% ERRγ bound): 15 fold
- reduction in crosslinking capacity, peptide mix vs ERRγ in isolation (peptide competitors relative to ERRγ 8:1): ~2 fold

Reference: publication PMC10064330, “Reversible Dual-Covalent Molecular Locking of the 14-3-3/ERRγ Protein–Protein Interaction as a Molecular Glue Drug Discovery Approach” (Journal of the American Chemical Society, 2023)
